The species named for data set [1] is Rattus norvegicus. Nature of the data set: Inhibition of Glycine, Strychnine-Sensitive at 10 µM in the Eurofins-Panlabs radioligand binding assay (Eurofins_assay_239000). As to conditions: Compound concentration 10.0 uM; call rule not given here.
Data set [2] addresses Somatostatin receptor type 2 (Homo sapiens) (UniProt P30874). Kind of data set: Somatostatin sst2 Eurofins-Panlabs radioligand binding assay. The following applies: Compound concentration 10.0 uM. More on the design: ligand concentration 0.1 nM.
Another data set addresses monoamine oxidase MAO-B (Homo sapiens, UniProt P27338). Kind of data set: Inhibition of Monoamine Oxidase MAO-B at compound concentration of 10.0 uM in the Eurofins-Panlabs enzyme assay (Eurofins_assay_140120). More on the design: substrate with concentration 50 uM Kynuramine, incubation time 60 min, incubation temperature 37 C. As to conditions: recombinant human MAO-B expressed in insect Hi5 cells, probe kynuramine (50 uM), compound concentration 10 uM.

In data set [3] the target is Protein kinase C alpha type (Homo sapiens, UniProt P17252). Kind of data set: Inhibition of Protein Serine/Threonine Kinase, PRKCA (PKCα) at 10 µM in the Eurofins-Panlabs enzyme assay (Eurofins_assay_180010). More on the design: substrate with concentration Histone, incubation time 10 min, incubation temperature 25 °C.
The next data set is filed under the species Bos taurus. Kind of data set: Protein Serine/Threonine Kinase, PKA, Non-Selective Eurofins-Panlabs enzyme assay. Format: protein-complex assay. More on the design: substrate with concentration 370 µg/mL Histone Type III-S, incubation time 15 min, incubation temperature 25 °C. As to conditions: Compound concentration 100.0 uM.
Data set [4] deals with T1, 5-hydroxytryptamine receptor 2C (Homo sapiens) (UniProt P28335).
T1 sequence (whole entry): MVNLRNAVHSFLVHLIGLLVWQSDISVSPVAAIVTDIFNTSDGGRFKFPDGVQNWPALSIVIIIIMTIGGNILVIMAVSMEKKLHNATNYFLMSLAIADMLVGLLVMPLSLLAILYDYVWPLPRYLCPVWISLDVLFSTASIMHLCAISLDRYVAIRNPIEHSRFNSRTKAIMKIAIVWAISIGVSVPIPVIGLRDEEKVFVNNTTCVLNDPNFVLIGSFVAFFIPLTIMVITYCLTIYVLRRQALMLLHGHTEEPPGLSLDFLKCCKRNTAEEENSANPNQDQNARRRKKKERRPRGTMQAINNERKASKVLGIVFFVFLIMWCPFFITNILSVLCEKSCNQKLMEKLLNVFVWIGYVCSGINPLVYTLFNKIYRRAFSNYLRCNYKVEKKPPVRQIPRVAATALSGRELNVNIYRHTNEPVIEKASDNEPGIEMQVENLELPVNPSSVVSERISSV
The following applies: Compound concentration 10.0 uM.

Data set [5] deals with Vasopressin V1a receptor (Homo sapiens) (UniProt P37288). Kind of data set: Vasopressin V1A Eurofins-Panlabs radioligand binding assay. The following applies: Compound concentration 10.0 uM. More on the design: ligand concentration 0.01 nM.
The target in data set [6] is Histamine H3 receptor (Homo sapiens) (UniProt Q9Y5N1). Kind of data set: Histamine H3 Eurofins-Panlabs radioligand binding assay. As to conditions: Compound concentration 10.0 uM.
The species entered for data set [7] is Rattus norvegicus. Kind of data set: Protein Serine/Threonine Kinase, PKC, Non-Selective Eurofins-Panlabs enzyme assay. The following applies: Compound concentration 10.0 uM.
Data set [8] deals with D(1B) dopamine receptor (Homo sapiens) (UniProt P21918). The following applies: Compound concentration 10.0 uM.
Data set [9] deals with Cannabinoid receptor 1 (Homo sapiens) (UniProt P21554). Kind of data set: Cannabinoid CB1 Eurofins-Panlabs radioligand binding assay. The following applies: Compound concentration 10.0 uM.
The target in data set [10] is Galanin receptor type 2 (Homo sapiens) (UniProt O43603). Kind of data set: Galanin GAL2 Eurofins-Panlabs radioligand binding assay. As to conditions: Compound concentration 10.0 uM. More on the design: ligand concentration 0.02 nM.
Data set [11] deals with voltage-gated sodium channel, site 2 (Rattus norvegicus, UniProt F1LQQ7+O08562+O88420+O88457+P04774+P04775+P08104+P15389+P15390+Q62968). Kind of data set: Inhibition of Sodium Channel, Site 2 at 10 µM in the Eurofins-Panlabs radioligand binding assay (Eurofins_assay_279510). The format is protein assay. More on the design: ligand concentration 5 nM, non-specific ligand with concentration 100 µM Veratridine, incubation time 60 min, incubation temperature 37 °C. As to conditions: male, Wistar, rat whole brain (except cerebellum) membranes, probe [3H] Batrachotoxinin (radioligand, 5 nM), compound concentration 10 uM.

For data set [12], the target named is Acetylcholinesterase (Homo sapiens) (UniProt P22303). As to conditions: Compound concentration 10.0 uM.
Data set [13] has as its target Tyrosine-protein phosphatase non-receptor type 2 (Homo sapiens, UniProt P17706). Nature of the data set: Panlabs assay. More on the design: compound concentration 10 uM.
Data set [14] addresses T2, Alpha-2B adrenergic receptor (Homo sapiens) (UniProt P18089).
T2 sequence (whole entry): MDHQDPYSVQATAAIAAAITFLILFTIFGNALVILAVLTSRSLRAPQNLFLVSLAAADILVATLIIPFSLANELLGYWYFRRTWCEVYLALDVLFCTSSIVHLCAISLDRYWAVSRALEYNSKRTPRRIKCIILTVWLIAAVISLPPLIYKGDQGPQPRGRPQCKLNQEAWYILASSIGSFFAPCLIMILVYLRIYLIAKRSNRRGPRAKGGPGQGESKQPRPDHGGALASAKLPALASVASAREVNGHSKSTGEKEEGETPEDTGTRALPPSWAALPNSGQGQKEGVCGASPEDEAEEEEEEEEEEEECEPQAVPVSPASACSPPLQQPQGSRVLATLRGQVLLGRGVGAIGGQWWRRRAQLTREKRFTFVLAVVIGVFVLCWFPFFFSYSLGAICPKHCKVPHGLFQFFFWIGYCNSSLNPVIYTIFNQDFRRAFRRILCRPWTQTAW
The following applies: Compound concentration 10.0 uM.

In data set [15] the target is Glutamate NMDA receptor (Rattus norvegicus) (UniProt P35439+Q00959+Q00960+Q00961+Q62645+Q8VHN2+Q9R1M7). As to conditions: Compound concentration 10.0 uM.
Data set [16] deals with Adenosine receptor A2a (Homo sapiens) (UniProt P29274). The following applies: Compound concentration 10.0 uM.
A further data set has as its target Caspase-6 (Homo sapiens) (UniProt P55212). Kind of data set: Peptidase, CASP6 (Caspase 6) Eurofins-Panlabs enzyme assay. As to conditions: Compound concentration 10.0 uM. More on the design: substrate with concentration.
For data set [17], the target named is Insulin receptor (Homo sapiens) (UniProt P06213). The following applies: Rattus norvegicus; Compound concentration 10.0 uM.
The target of data set [18] is Mu-type opioid receptor (Homo sapiens) (UniProt P35372). The following applies: Compound concentration 10.0 uM.
In data set [19] the target is Tyrosine 3-monooxygenase (Homo sapiens) (UniProt P07101). Nature of the data set: Tyrosine Hydroxylase Eurofins-Panlabs enzyme assay. More on the design: substrate with concentration. As to conditions: Rattus norvegicus; Compound concentration 10.0 uM.
The target in data set [20] is Type-2 angiotensin II receptor (Homo sapiens) (UniProt P50052). Kind of data set: Angiotensin AT2 Eurofins-Panlabs radioligand binding assay. The format is protein assay. The following applies: Compound concentration 10.0 uM.
In data set [21] the target is Prostaglandin F2-alpha receptor (Homo sapiens) (UniProt P43088). Kind of data set: Prostanoid FP Eurofins-Panlabs radioligand binding assay. More on the design: ligand concentration 0.95 nM. As to conditions: Compound concentration 10.0 uM.
Data set [22] concerns the target D(1A) dopamine receptor (Homo sapiens) (UniProt P21728). As to conditions: Compound concentration 10.0 uM.
The target in data set [23] is Glutamate (NMDA/AMPA/Kainate) (Rattus norvegicus) (UniProt P35439+Q00959+Q00960+Q00961+Q62645+Q8VHN2+Q9R1M7+P22756+Q9ULK0+Q01812+P19491+P19492+P19493+P42260+P42264+P19490+Q63273+O43424). Nature of the data set: Glutamate, Non-Selective Eurofins-Panlabs radioligand binding assay. More on the design: ligand concentration 3.75 nM. Format: protein-complex assay. The following applies: Compound concentration 10.0 uM.

For data set [24], the target named is Muscarinic acetylcholine receptor M2 (Homo sapiens) (UniProt P08172). As to conditions: Compound concentration 10.0 uM.
In data set [25] the target is 5-hydroxytryptamine receptor 1E (Homo sapiens) (UniProt P28566). The following applies: Compound concentration 10.0 uM.

Structures are written as SMILES.

Chain of Muscarinic acetylcholine receptor M2 (Homo sapiens) (P08172 whole entry): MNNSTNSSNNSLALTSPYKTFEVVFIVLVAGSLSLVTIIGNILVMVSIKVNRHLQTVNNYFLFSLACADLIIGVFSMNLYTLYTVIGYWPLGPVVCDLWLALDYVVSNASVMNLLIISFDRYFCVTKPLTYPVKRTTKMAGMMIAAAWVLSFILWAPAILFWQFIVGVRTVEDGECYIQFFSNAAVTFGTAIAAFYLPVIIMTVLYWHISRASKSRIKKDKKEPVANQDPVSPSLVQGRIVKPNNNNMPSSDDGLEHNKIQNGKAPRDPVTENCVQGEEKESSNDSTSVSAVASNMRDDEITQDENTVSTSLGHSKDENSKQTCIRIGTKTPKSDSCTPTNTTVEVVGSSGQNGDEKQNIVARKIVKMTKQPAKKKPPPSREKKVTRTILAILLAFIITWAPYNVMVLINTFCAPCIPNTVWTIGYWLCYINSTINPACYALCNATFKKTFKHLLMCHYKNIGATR
Chain of Acetylcholinesterase (Homo sapiens) (P22303 whole entry): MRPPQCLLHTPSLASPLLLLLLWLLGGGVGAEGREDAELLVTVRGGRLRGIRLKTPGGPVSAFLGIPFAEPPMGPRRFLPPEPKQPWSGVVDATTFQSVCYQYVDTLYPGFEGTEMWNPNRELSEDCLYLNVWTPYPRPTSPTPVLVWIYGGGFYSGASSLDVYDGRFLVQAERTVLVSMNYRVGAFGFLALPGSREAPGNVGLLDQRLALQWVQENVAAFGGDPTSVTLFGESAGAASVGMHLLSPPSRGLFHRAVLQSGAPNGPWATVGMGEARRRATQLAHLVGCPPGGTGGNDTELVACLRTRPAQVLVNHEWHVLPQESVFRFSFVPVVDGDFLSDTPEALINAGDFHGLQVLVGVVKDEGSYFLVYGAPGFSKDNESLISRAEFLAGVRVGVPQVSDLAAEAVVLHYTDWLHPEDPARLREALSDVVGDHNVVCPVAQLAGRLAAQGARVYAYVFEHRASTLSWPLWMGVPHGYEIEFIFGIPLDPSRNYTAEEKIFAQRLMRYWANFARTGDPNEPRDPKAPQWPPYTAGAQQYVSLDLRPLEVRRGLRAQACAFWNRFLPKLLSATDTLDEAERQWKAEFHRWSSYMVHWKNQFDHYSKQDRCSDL
Chain of Somatostatin receptor type 2 (Homo sapiens) (P30874 whole entry): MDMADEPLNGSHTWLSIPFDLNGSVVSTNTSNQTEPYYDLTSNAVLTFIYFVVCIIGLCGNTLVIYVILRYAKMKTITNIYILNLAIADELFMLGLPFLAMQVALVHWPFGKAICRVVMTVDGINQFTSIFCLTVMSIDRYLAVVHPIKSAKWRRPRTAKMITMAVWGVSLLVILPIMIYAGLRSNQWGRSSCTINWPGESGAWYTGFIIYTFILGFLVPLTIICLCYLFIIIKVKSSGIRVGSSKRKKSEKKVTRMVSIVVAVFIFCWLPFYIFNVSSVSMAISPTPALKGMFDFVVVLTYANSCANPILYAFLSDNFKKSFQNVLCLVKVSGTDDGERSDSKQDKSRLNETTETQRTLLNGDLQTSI
Chain of Type-2 angiotensin II receptor (Homo sapiens) (P50052 whole entry): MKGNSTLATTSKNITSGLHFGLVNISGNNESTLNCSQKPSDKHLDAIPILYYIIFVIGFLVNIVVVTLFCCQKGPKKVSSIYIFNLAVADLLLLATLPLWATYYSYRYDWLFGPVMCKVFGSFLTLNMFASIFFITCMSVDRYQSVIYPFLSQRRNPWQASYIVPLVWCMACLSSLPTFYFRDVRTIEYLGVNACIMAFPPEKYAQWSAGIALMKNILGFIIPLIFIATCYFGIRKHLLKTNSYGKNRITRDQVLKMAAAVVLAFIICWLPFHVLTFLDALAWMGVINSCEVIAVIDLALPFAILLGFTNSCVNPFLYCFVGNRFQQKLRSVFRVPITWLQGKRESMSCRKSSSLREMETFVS
Chain of D(1B) dopamine receptor (Homo sapiens) (P21918 whole entry): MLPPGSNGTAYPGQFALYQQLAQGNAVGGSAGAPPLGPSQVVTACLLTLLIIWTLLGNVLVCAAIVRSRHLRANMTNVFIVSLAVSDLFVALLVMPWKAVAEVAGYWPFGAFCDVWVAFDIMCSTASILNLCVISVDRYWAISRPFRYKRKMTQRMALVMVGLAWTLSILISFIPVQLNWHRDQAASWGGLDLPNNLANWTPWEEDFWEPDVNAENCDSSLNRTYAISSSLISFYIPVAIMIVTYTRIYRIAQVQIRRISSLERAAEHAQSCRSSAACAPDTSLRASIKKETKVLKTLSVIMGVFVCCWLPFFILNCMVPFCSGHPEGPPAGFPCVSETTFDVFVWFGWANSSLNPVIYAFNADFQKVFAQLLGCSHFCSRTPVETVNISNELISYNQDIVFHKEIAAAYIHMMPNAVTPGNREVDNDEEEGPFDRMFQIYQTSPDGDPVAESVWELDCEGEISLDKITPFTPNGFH
Chain of Mu-type opioid receptor (Homo sapiens) (P35372 whole entry): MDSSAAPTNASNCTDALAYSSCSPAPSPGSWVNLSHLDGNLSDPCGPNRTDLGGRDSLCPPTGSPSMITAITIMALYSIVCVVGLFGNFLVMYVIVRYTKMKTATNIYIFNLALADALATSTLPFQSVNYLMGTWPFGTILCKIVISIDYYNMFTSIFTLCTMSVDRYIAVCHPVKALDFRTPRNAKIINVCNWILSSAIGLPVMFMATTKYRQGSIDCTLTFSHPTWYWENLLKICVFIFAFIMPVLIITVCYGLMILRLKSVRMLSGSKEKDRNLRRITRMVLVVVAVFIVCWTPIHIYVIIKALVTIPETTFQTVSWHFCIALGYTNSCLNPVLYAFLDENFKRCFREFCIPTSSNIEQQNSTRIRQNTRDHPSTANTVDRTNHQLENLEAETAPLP
Chain of Adenosine receptor A2a (Homo sapiens) (P29274 whole entry): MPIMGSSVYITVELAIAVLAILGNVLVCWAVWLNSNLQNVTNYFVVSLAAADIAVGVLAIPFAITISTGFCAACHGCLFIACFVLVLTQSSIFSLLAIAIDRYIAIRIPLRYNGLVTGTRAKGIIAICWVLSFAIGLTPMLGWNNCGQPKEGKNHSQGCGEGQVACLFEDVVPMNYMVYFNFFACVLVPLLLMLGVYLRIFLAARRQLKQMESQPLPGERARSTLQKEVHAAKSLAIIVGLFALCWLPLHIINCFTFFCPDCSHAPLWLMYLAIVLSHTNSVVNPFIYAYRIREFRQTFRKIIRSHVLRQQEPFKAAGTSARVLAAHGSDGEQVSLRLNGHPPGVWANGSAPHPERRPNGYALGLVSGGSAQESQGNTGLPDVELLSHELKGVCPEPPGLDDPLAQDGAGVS
Chain of Histamine H3 receptor (Homo sapiens) (Q9Y5N1 whole entry): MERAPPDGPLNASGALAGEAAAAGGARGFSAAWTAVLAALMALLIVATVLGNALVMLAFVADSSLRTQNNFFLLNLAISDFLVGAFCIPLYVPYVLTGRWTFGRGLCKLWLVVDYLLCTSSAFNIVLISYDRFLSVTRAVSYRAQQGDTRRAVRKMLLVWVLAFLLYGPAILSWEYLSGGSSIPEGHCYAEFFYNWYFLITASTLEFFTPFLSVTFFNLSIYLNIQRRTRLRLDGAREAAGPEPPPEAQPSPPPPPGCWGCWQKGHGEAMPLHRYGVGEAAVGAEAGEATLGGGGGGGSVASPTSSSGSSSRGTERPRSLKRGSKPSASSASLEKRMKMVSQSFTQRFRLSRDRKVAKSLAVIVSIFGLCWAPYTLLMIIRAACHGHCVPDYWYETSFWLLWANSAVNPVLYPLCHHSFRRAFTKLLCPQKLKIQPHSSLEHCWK
Chain of Tyrosine-protein phosphatase non-receptor type 2 (P17706 whole entry): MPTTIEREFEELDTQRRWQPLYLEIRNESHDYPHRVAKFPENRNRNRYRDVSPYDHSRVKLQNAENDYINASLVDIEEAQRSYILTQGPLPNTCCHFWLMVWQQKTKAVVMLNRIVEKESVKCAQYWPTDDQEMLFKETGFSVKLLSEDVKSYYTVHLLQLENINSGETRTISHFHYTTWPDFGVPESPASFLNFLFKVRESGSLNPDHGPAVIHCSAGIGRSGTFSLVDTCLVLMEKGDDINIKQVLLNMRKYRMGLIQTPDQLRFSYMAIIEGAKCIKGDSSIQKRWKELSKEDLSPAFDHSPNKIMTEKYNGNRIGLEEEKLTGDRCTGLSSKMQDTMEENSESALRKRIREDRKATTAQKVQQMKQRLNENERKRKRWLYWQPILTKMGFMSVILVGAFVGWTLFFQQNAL
Chain of monoamine oxidase MAO-B (P27338 whole entry): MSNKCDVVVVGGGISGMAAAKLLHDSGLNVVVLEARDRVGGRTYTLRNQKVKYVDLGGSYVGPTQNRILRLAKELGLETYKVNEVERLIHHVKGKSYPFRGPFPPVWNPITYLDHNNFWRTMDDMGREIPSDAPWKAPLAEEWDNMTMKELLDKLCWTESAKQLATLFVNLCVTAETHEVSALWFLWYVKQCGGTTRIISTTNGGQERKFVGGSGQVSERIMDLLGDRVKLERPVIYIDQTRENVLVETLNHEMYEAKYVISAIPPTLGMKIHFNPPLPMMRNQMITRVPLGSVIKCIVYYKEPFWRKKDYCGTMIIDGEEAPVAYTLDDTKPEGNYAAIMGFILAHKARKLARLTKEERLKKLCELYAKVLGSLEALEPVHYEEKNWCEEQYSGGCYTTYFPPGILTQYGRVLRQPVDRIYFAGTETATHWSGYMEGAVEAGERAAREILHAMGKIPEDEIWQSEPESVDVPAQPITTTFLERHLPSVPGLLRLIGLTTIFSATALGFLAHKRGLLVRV
Chain of Cannabinoid receptor 1 (Homo sapiens) (P21554 whole entry): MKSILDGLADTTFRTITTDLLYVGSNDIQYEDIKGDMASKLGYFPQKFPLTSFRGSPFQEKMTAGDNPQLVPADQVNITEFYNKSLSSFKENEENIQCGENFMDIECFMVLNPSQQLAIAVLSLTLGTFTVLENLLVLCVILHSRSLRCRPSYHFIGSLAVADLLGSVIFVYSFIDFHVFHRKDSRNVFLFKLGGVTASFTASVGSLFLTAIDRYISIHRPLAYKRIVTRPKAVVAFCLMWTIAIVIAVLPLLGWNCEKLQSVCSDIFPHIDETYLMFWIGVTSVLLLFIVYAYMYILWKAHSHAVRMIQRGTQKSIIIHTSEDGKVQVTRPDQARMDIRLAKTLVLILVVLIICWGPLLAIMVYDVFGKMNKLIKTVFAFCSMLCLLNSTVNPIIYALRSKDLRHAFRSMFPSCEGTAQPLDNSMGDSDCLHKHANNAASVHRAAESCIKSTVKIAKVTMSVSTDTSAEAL

With `N#CC1(c2ccccn2)CCN(Cc2cc(C(=O)O)c(=O)n3ccccc23)CC1` [MSD-M1PAM], the inhibition was 33% in the data set filed under Rattus norvegicus [1]; 12% in data set [2]; -9% in [3] (Compound concentration 0.1 uM); -3% in [3] (Compound concentration 1.0 uM); 11% in data set [3] (Compound concentration 10.0 uM); 52% in data set [3] (Compound concentration 100.0 uM). Moreover, the inhibition in the data set filed under Bos taurus was 24%; in data set [4], -8%; in data set [5], -5%; in data set [6], -9%; in the data set listed under Rattus norvegicus [7], 9%; in [8] it was -2.87%. The inhibition in data set [9] is -3%; in data set [10], 4%; in data set [12] it was 1%; in [14], -8%; in data set [15] it was 4%; in data set [16], 6%. The inhibition is 13% on Caspase-6 (Homo sapiens); 3% in data set [17]; 0% in data set [18]; -2% in data set [19]; -2% in [20]; 12% in data set [21]. Moreover, the results for the inhibition in data set [22], in data set [23] and in data set [24] were 6%, 8% and -8.07%, respectively. Besides, the inhibition at 60 min, 10 µM is given as -5% (not active) on monoamine oxidase MAO-B and 4% (not active) in data set [11]. Besides, the concentration for half-maximal inhibition (IC50) in data set [3] was 91.5 µM; in data set [13] it was 10 µM (not active).

Consider `N#CC1(c2ccccn2)CCN(Cc2cc(C(=O)N3CCCC3)c(=O)n3ccccc23)CC1`, for which the inhibition in [25] was -3.26%.

In general, inhibition refers to the drop in the measured response relative to a control, in per cent. As a reminder, the IC50 is the concentration that inhibits the measured activity by half.

The record behind these values is ChEMBL document CHEMBL4507295 (2021).
